We go through one molecule from ChEMBL document CHEMBL1155172, “Distribution of radioactivity in bone and related structures following administration of [14C]dalbavancin to New Zealand white rabbits” (Antimicrob Agents Chemother, 2007).

Holding throughout (parameters): dose 20 mg/kg, route intravenous
What all share (conditions): in vivo

Data set [1] can be described thus: Drug level in New Zealand white rabbit bone marrow assessed as [14C]dalbavancin level per gram of tissue at 20 mg/kg, iv after 168 hrs by liquid scintillation counting method. It is filed as ADME, organism-based, Oryctolagus cuniculus.
Data set [2] is described as follows: Drug level in New Zealand white rabbit epiphyseal plate assessed as [14C]dalbavancin level per gram of tissue at 20 mg/kg, iv after 12 hrs by autoradioluminography. It is filed as ADME, organism-based, Oryctolagus cuniculus.
Data set [3] in a line: Drug level in New Zealand white rabbit bone marrow assessed as [14C]dalbavancin level per gram of tissue at 20 mg/kg, iv after 72 hrs by liquid scintillation counting method. Type of data set: ADME, organism-based, Oryctolagus cuniculus.
Data set [4] in a line: Drug level in New Zealand white rabbit compact bone assessed as [14C]dalbavancin level per gram of tissue at 20 mg/kg, iv after 12 hrs by autoradioluminography. It is filed as ADME, organism-based, Oryctolagus cuniculus, Bone element.
A short description of data set [5]: Drug level in New Zealand white rabbit bone marrow assessed as [14C]dalbavancin level per gram of tissue at 20 mg/kg, iv after 120 hrs by liquid scintillation counting method. Type of data set: ADME, organism-based, Oryctolagus cuniculus.
A short description of data set [6]: Drug level in New Zealand white rabbit articular cartilage assessed as [14C]dalbavancin level per gram of tissue at 20 mg/kg, iv after 12 hrs by autoradioluminography. It is filed as ADME, organism-based, Oryctolagus cuniculus.
A short description of data set [7]: Drug level in New Zealand white rabbit articular cartilage assessed as [14C]dalbavancin level per gram of tissue at 20 mg/kg, iv after 168 hrs by autoradioluminography. It is filed as ADME, organism-based, Oryctolagus cuniculus.
Data set [8] is described as follows: Drug level in New Zealand white rabbit synovial space assessed as [14C]dalbavancin level per gram of tissue at 20 mg/kg, iv after 72 hrs by autoradioluminography. Type of data set: ADME, organism-based, Oryctolagus cuniculus.
Data set [9] can be described thus: Drug level in New Zealand white rabbit meniscus assessed as [14C]dalbavancin level per gram of tissue at 20 mg/kg, iv after 24 hrs by autoradioluminography. Type of data set: ADME, organism-based, Oryctolagus cuniculus.
A short description of data set [10]: Drug level in New Zealand white rabbit ligament assessed as [14C]dalbavancin level per gram of tissue at 20 mg/kg, iv after 24 hrs by autoradioluminography. It is filed as ADME, organism-based, Oryctolagus cuniculus.

For `CN[C@H]1C(=O)N[C@@H]2Cc3ccc(cc3)Oc3cc4cc(c3O[C@@H]3O[C@H](C(=O)O)[C@@H](O)[C@H](O)[C@H]3NC(=O)CCCCCCCCC(C)C)Oc3ccc(cc3Cl)[C@@H](O)[C@@H]3NC(=O)[C@H](NC(=O)[C@@H]4NC(=O)[C@@H](NC2=O)c2cc(cc(O)c2Cl)Oc2cc1ccc2O)c1ccc(O)c(c1)-c1c(O[C@H]2O[C@H](CO)[C@@H](O)[C@H](O)[C@@H]2O)cc(O)cc1[C@@H](C(=O)NCCCN(C)C)NC3=O` [DALBAVANCIN], the Drug uptake in data set [1] amounted to 16.1 µg/g; in data set [2] it was 21.9 µg/g; in data set [3], 12.7 µg/g; in data set [4], 1.56 µg/g; in data set [5], 9.52 µg/g; in [6], 25.1 µg/g. Further, the Drug uptake in data set [7] was 7.48 µg/g; in [8], 1.49 µg/g; in data set [9], 12.4 µg/g; in data set [10] it was 8.64 µg/g.
